# Measurements published in the supplement of paper PMC10307832.
# Legend:
# Test in all cases: relative viability (nuclei count vs DMSO), 5 days (fraction); higher = more cells survive
# NCI-H3122 = system: NCI-H3122
# Procedure, shortened: (§1)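 Cells from lung cancer lines were seeded into 1536-well plates and, one day later, dosed by pin tool. Treatments were either a single drug or a fixed dose of an anchor drug with five library-drug doses (not always all listed) in √10 steps. After 5 days, nuclei were stained in a one-step fixation (final 0.05% Triton X-100, 1% formaldehyde, 1 ug/ml Hoechst) and counted on 4× images, and relative viability is the treated-to-vehicle nuclei ratio, as the median of duplicate plates.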
# HCC-44 = system: HCC-44
# Procedure, shortened: as §1
# LOU-NH91 = system: LOU-NH91
# Procedure, shortened: as §1
# LXF-289 = system: LXF-289
# Procedure, shortened: as §1
# NCI-H1648 = system: NCI-H1648
# Procedure, shortened: as §1
# HCC-366 = system: HCC-366
# Procedure, shortened: as §1
# NCI-H1437 = system: NCI-H1437
# Procedure, shortened: as §1
# A549 = system: A549
# Procedure, shortened: as §1
# NCI-H2085 = system: NCI-H2085
# Procedure, shortened: as §1
# IA-LM = system: IA-LM
# Procedure, shortened: as §1
compound,measurement,setting,value
COc1cc2nccc(Oc3ccc(NC(=O)Nc4cc(C)on4)c(Cl)c3)c2cc1OC [Tivozanib] + Nc1ncn([C@H]2C[C@H](O)[C@@H](CO)O2)c(=O)n1 [Decitabine] (partner 2 µM),relative viability,NCI-H3122; first compound 0.005 µM,0.462
same,relative viability,NCI-H3122; first compound 0.01581 µM,0.427
same,relative viability,NCI-H3122; first compound 0.05 µM,0.429
same,relative viability,NCI-H3122; first compound 0.1581 µM,0.401
same,relative viability,NCI-H3122; first compound 0.5 µM,0.563
same,relative viability,HCC-44; first compound 0.005 µM,0.92
same,relative viability,HCC-44; first compound 0.01581 µM,0.964
same,relative viability,HCC-44; first compound 0.05 µM,0.956
same,relative viability,HCC-44; first compound 0.1581 µM,0.982
same,relative viability,HCC-44; first compound 0.5 µM,0.937
same,relative viability,LOU-NH91; first compound 0.005 µM,0.772
same,relative viability,LOU-NH91; first compound 0.01581 µM,0.8
same,relative viability,LOU-NH91; first compound 0.05 µM,0.808
same,relative viability,LOU-NH91; first compound 0.1581 µM,0.752
same,relative viability,LOU-NH91; first compound 0.5 µM,0.796
same,relative viability,LXF-289; first compound 0.005 µM,0.331
same,relative viability,LXF-289; first compound 0.01581 µM,0.363
same,relative viability,LXF-289; first compound 0.05 µM,0.35
same,relative viability,LXF-289; first compound 0.1581 µM,0.346
same,relative viability,LXF-289; first compound 0.5 µM,0.404
same,relative viability,NCI-H1648; first compound 0.005 µM,0.467
same,relative viability,NCI-H1648; first compound 0.01581 µM,0.434
same,relative viability,NCI-H1648; first compound 0.05 µM,0.479
same,relative viability,NCI-H1648; first compound 0.1581 µM,0.451
same,relative viability,NCI-H1648; first compound 0.5 µM,0.496
same,relative viability,HCC-366; first compound 0.005 µM,0.334
same,relative viability,HCC-366; first compound 0.01581 µM,0.306
same,relative viability,HCC-366; first compound 0.05 µM,0.346
same,relative viability,HCC-366; first compound 0.1581 µM,0.349
same,relative viability,HCC-366; first compound 0.5 µM,0.378
same,relative viability,NCI-H1437; first compound 0.005 µM,0.629
same,relative viability,NCI-H1437; first compound 0.01581 µM,0.582
same,relative viability,NCI-H1437; first compound 0.05 µM,0.594
same,relative viability,NCI-H1437; first compound 0.1581 µM,0.653
same,relative viability,NCI-H1437; first compound 0.5 µM,0.564
same,relative viability,A549; first compound 0.005 µM,0.207
same,relative viability,A549; first compound 0.01581 µM,0.225
same,relative viability,A549; first compound 0.05 µM,0.223
same,relative viability,A549; first compound 0.1581 µM,0.239
same,relative viability,A549; first compound 0.5 µM,0.225
same,relative viability,NCI-H2085; first compound 0.005 µM,0.536
same,relative viability,NCI-H2085; first compound 0.01581 µM,0.609
same,relative viability,NCI-H2085; first compound 0.05 µM,0.619
same,relative viability,NCI-H2085; first compound 0.1581 µM,0.578
same,relative viability,NCI-H2085; first compound 0.5 µM,0.562
COc1cc2nccc(Oc3ccc(NC(=O)Nc4cc(C)on4)c(Cl)c3)c2cc1OC [Tivozanib] + O=C(CCCCCCC(=O)Nc1ccccc1)NO [Vorinostat] (partner 1 µM),relative viability,NCI-H3122; first compound 0.005 µM,0.644
same,relative viability,NCI-H3122; first compound 0.01581 µM,1.12
same,relative viability,NCI-H3122; first compound 0.05 µM,0.97
same,relative viability,NCI-H3122; first compound 0.1581 µM,1.03
same,relative viability,NCI-H3122; first compound 0.5 µM,0.822
same,relative viability,HCC-44; first compound 0.005 µM,1.03
same,relative viability,HCC-44; first compound 0.01581 µM,1.09
same,relative viability,HCC-44; first compound 0.05 µM,1.1
same,relative viability,HCC-44; first compound 0.1581 µM,1.17
same,relative viability,HCC-44; first compound 0.5 µM,1.02
same,relative viability,LOU-NH91; first compound 0.005 µM,0.754
same,relative viability,LOU-NH91; first compound 0.01581 µM,0.952
same,relative viability,LOU-NH91; first compound 0.05 µM,0.908
same,relative viability,LOU-NH91; first compound 0.1581 µM,0.782
same,relative viability,LOU-NH91; first compound 0.5 µM,0.761
same,relative viability,IA-LM; first compound 0.005 µM,0.93
same,relative viability,IA-LM; first compound 0.01581 µM,0.981
same,relative viability,IA-LM; first compound 0.05 µM,0.872
same,relative viability,IA-LM; first compound 0.5 µM,0.836
same,relative viability,LXF-289; first compound 0.005 µM,0.647
same,relative viability,LXF-289; first compound 0.01581 µM,0.674
same,relative viability,LXF-289; first compound 0.05 µM,0.741
same,relative viability,LXF-289; first compound 0.1581 µM,0.939
same,relative viability,LXF-289; first compound 0.5 µM,0.684
same,relative viability,NCI-H1648; first compound 0.005 µM,0.453
same,relative viability,NCI-H1648; first compound 0.01581 µM,0.706
same,relative viability,NCI-H1648; first compound 0.05 µM,0.804
same,relative viability,NCI-H1648; first compound 0.1581 µM,0.796
same,relative viability,NCI-H1648; first compound 0.5 µM,0.423
same,relative viability,HCC-366; first compound 0.005 µM,0.333
same,relative viability,HCC-366; first compound 0.01581 µM,0.323
same,relative viability,HCC-366; first compound 0.05 µM,0.312
same,relative viability,HCC-366; first compound 0.1581 µM,0.305
same,relative viability,HCC-366; first compound 0.5 µM,0.244
same,relative viability,NCI-H1437; first compound 0.005 µM,0.769
same,relative viability,NCI-H1437; first compound 0.01581 µM,0.876
same,relative viability,NCI-H1437; first compound 0.05 µM,0.815
same,relative viability,NCI-H1437; first compound 0.1581 µM,0.746
same,relative viability,NCI-H1437; first compound 0.5 µM,0.712
same,relative viability,NCI-H2085; first compound 0.005 µM,0.754
same,relative viability,NCI-H2085; first compound 0.01581 µM,0.796
same,relative viability,NCI-H2085; first compound 0.05 µM,0.825
same,relative viability,NCI-H2085; first compound 0.1581 µM,0.709
same,relative viability,NCI-H2085; first compound 0.5 µM,0.786
